According to US20150031765A1, “TREATMENT OF COGNITIVE IMPAIRMENT” (priority 2011, published 2015):
Structures can show the parent of a compound that is named as a salt.

Assays:
[1] = test system: scopolamine induced learning and memory deficit; experiment: Morris water maze test, scopolamine induced learning and memory deficit in rats; type: in vivo, Sprague-Dawley male rats; conditions: for average time to locate the submerged platform: Day 1 of acquisition trials, whole group
Procedure: The Morris water maze test is a classical cognitive test for evaluation of spatial learning and memory in rodents. […] 60 Sprague-Dawley male rats were used in the present study. The animals were housed in cages in groups of four rats per cage. All rats were fed with food and water ad libitum. The testing apparatus can be described as follows. A circular pool was filled with water (24±1° C.) to the depth of 30 cm. […] Four start positions were at the perimeter of the pool: the first one in the first quadrant, the second one in the second quadrant, the third one in the third quadrant and the last one in the fourth quadrant. The rats were trained to escape from water by swimming to a hidden platform whose location was only identified using visual cues attached to the curtain around the pool. Visual cues had different colors and dimensions and were kept constant during the whole experiment. All rats were trained in the swimming pool for 60 seconds without the platform. […] The training procedure included 4 trials per day with 4 different and randomized starting positions. In each trial, the time of rat to reach the platform (escape latency) was recorded, and then the rat was allowed to stay on the platform for 15 seconds. […] The experimental group setting is described in Table 3. […] For practical reasons, the study was divided into two sessions (Table 4). Each session included 6 groups, and each group included 5 rats. Each session took 10 days to complete. […] On day 6, each rat was placed in the swimming pool with no platform to locate the platform site for 60 seconds. […] Any Maze software was used for video tracking and data collection during the whole acquisition trial and probe trial. In acquisition trial, escape latency was recorded. In probe trial, time spent in target and swimming speed was recorded. Data were analyzed and graphed by Graph Pad Prism 5.

[2] = test system: memory dysfunction of scopolamine-treated rats; conditions: Morris water maze test; cited from earlier work
[3] = Day 1, session 1, 250 mg/kg po + scopolamine 0.5 mg/kg ip
[4] = Day 1, session 2, 250 mg/kg po + scopolamine 0.5 mg/kg ip
[5] = Day 2, session 1, 250 mg/kg po + scopolamine 0.5 mg/kg ip
[6] = Day 2, session 2, 250 mg/kg po + scopolamine 0.5 mg/kg ip
[7] = Day 3, session 1, 250 mg/kg po + scopolamine 0.5 mg/kg ip
[8] = Day 3, session 2, 250 mg/kg po + scopolamine 0.5 mg/kg ip
[9] = Day 4, session 1, 250 mg/kg po + scopolamine 0.5 mg/kg ip
[10] = Day 4, session 2, 250 mg/kg po + scopolamine 0.5 mg/kg ip
[11] = Day 5, session 1, 250 mg/kg po + scopolamine 0.5 mg/kg ip
[12] = Day 5, session 2, 250 mg/kg po + scopolamine 0.5 mg/kg ip
[13] = Day 6, session 1, 250 mg/kg po + scopolamine 0.5 mg/kg ip on days 1-5
[14] = Day 6, session 2, 250 mg/kg po + scopolamine 0.5 mg/kg ip on days 1-5, in s

Structure (SMILES): C[C@@]12CC[C@@H]3[C@@](CC[C@H]4[C@@]3(C)CCC[C@@]4(C)C(=O)O)(CC1=O)C2 (single isomer, unassigned; ent-16) [Isosteviol, ent-16-ketobeyeran-19-oic acid]
- effect on learning and memory deficit induced by scopolamine, probe trials (in words) ([1]; 80 mg/kg): significantly attenuated
- effect on learning and memory deficit induced by scopolamine, probe trials (in words) ([1]; 250 mg/kg): not
- Latency to escape in acquisition trial ([1]; Day 1, session 1, 80 mg/kg po + scopolamine 0.5 mg/kg ip): 46.46 ± 4.50 s
- Latency to escape in acquisition trial [1, 3]: 46.16 ± 2.48 s
- Latency to escape in acquisition trial ([1]; Day 1, session 2, 80 mg/kg po + scopolamine 0.5 mg/kg ip): 45.20 ± 6.40 s
- Latency to escape in acquisition trial [1, 4]: 48.46 ± 4.49 s
- average time to locate the submerged platform ([1]; 80 mg/kg po + scopolamine): 45.83 ± 3.70 s
- average time to locate the submerged platform ([1]; 250 mg/kg po + scopolamine): 47.31 ± 2.45 s
- Latency to escape in acquisition trial ([1]; Day 2, session 1, 80 mg/kg po + scopolamine 0.5 mg/kg ip): 45.24 ± 7.87 s
- Latency to escape in acquisition trial [1, 5]: 43.94 ± 5.18 s
- Latency to escape in acquisition trial ([1]; Day 2, session 2, 80 mg/kg po + scopolamine 0.5 mg/kg ip): 41.88 ± 3.19 s
- Latency to escape in acquisition trial [1, 6]: 50.76 ± 3.90 s
- Latency to escape in acquisition trial ([1]; Day 3, session 1, 80 mg/kg po + scopolamine 0.5 mg/kg ip): 40.42 ± 5.48 s
- Latency to escape in acquisition trial [1, 7]: 48.62 ± 5.64 s
- Latency to escape in acquisition trial ([1]; Day 3, session 2, 80 mg/kg po + scopolamine 0.5 mg/kg ip): 36.04 ± 5.50 s
- Latency to escape in acquisition trial [1, 8]: 40.42 ± 4.57 s
- Latency to escape in acquisition trial ([1]; Day 4, session 1, 80 mg/kg po + scopolamine 0.5 mg/kg ip): 37.84 ± 4.36 s
- Latency to escape in acquisition trial [1, 9]: 44.36 ± 6.54 s
- Latency to escape in acquisition trial ([1]; Day 4, session 2, 80 mg/kg po + scopolamine 0.5 mg/kg ip): 38.74 ± 5.25 s
- Latency to escape in acquisition trial [1, 10]: 41.58 ± 6.33 s
- Latency to escape in acquisition trial ([1]; Day 5, session 1, 80 mg/kg po + scopolamine 0.5 mg/kg ip): 27.14 ± 4.30 s
- Latency to escape in acquisition trial [1, 11]: 41.44 ± 7.24 s
- Latency to escape in acquisition trial ([1]; Day 5, session 2, 80 mg/kg po + scopolamine 0.5 mg/kg ip): 33.38 ± 6.04 s
- Latency to escape in acquisition trial [1, 12]: 35.24 ± 7.74 s
- Time spent in target quadrant in probe trial ([1]; Day 6, session 1, 80 mg/kg po + scopolamine 0.5 mg/kg ip on days 1-5): 19.80 ± 1.19 s
- Time spent in target quadrant in probe trial [1, 13]: 16.00 ± 2.37 s
- Time spent in target quadrant in probe trial ([1]; Day 6, session 2, 80 mg/kg po + scopolamine 0.5 mg/kg ip on days 1-5, in s): 17.28 ± 1.11
- Time spent in target quadrant in probe trial [1, 14]: 16.50 ± 1.61
- visible behavioral abnormalities ([1]; Morris water maze study): no visible behavioral abnormalities

Structure (SMILES): COc1cc2c(cc1OC)C(=O)C(CC1CCN(Cc3ccccc3)CC1)C2 (stereo not drawn) [Donepezil, Donepezil hydrochloride]
- effect on learning and memory deficit induced by scopolamine, probe trials (in words) ([1]; 0.1 mg/kg, vs scopolamine only group): significantly attenuated
- Latency to escape in acquisition trial ([1]; Day 1, session 1, 0.1 mg/kg ip + scopolamine 0.5 mg/kg ip): 48.52 ± 5.50 s
- Latency to escape in acquisition trial ([1]; Day 1, session 2, 0.1 mg/kg ip + scopolamine 0.5 mg/kg ip): 45.44 ± 5.40 s
- average time to locate the submerged platform ([1]; 0.1 mg/kg ip + scopolamine): 46.98 ± 3.67 s
- Latency to escape in acquisition trial ([1]; Day 2, session 1, 0.1 mg/kg ip + scopolamine 0.5 mg/kg ip): 44.50 ± 2.48 s
- Latency to escape in acquisition trial ([1]; Day 2, session 2, 0.1 mg/kg ip + scopolamine 0.5 mg/kg ip): 43.18 ± 7.85 s
- Latency to escape in acquisition trial ([1]; Day 3, session 1, 0.1 mg/kg ip + scopolamine 0.5 mg/kg ip): 35.92 ± 8.22 s
- Latency to escape in acquisition trial ([1]; Day 3, session 2, 0.1 mg/kg ip + scopolamine 0.5 mg/kg ip): 37.06 ± 4.26 s
- Latency to escape in acquisition trial ([1]; Day 4, session 1, 0.1 mg/kg ip + scopolamine 0.5 mg/kg ip): 36.04 ± 4.78 s
- Latency to escape in acquisition trial ([1]; Day 4, session 2, 0.1 mg/kg ip + scopolamine 0.5 mg/kg ip): 34.20 ± 6.89 s
- Latency to escape in acquisition trial ([1]; Day 5, session 1, 0.1 mg/kg ip + scopolamine 0.5 mg/kg ip): 26.86 ± 3.09 s
- Latency to escape in acquisition trial ([1]; Day 5, session 2, 0.1 mg/kg ip + scopolamine 0.5 mg/kg ip): 30.50 ± 5.78 s
- Time spent in target quadrant in probe trial ([1]; Day 6, session 1, 0.1 mg/kg ip + scopolamine 0.5 mg/kg ip on days 1-5): 18.84 ± 3.22 s
- Time spent in target quadrant in probe trial ([1]; Day 6, session 2, 0.1 mg/kg ip + scopolamine 0.5 mg/kg ip on days 1-5, in s): 19.40 ± 1.09

Structure (SMILES): CN1[C@@H]2C[C@@H](OC(=O)[C@H](CO)c3ccccc3)C[C@H]1[C@@H]1O[C@@H]12 [Scopolamine]
- average time to locate the submerged platform ([1]; scopolamine 0.5 mg/kg ip alone): 46.11 ± 2.98 s
- latency to the submerged platform in acquisition trials (effect in words) ([1]; Day 5, scopolamine 0.5 mg/kg): significantly increased
- Time spent in target quadrant in probe trial ([1]; Day 6, session 1, scopolamine 0.5 mg/kg ip alone (0.5% MC po) on days 1-5): 15.70 ± 1.42 s
- Time spent in target quadrant in probe trial ([1]; Day 6, session 2, scopolamine 0.5 mg/kg ip alone (0.5% MC po) on days 1-5, in s): 12.30 ± 1.24
- time to locate in target quadrant in probe trials (effect in words) ([1]; scopolamine 0.5 mg/kg): reduced

Structure (SMILES): C=C1C[C@@]23CC[C@H]4[C@@](C)(CCC[C@@]4(C)C(=O)O[C@@H]4O[C@H](CO)[C@@H](O)[C@H](O)[C@H]4O)[C@@H]2CC[C@]1(O[C@@H]1O[C@H](CO)[C@@H](O)[C@H](O)[C@H]1O[C@@H]1O[C@H](CO)[C@@H](O)[C@H](O)[C@H]1O)C3 [Stevioside]
- effect in cognitive deficits of rats (in words) [2]: memory-preservative effect
- effect on learning and memory deficit induced by scopolamine, probe trials (in words) ([1]; 250 mg/kg): significantly reversed
- Latency to escape in acquisition trial [1, 3]: 44.98 ± 5.53 s
- Latency to escape in acquisition trial [1, 4]: 46.48 ± 3.66 s
- average time to locate the submerged platform ([1]; 250 mg/kg po + scopolamine): 45.73 ± 3.14 s
- Latency to escape in acquisition trial [1, 5]: 45.78 ± 6.95 s
- Latency to escape in acquisition trial [1, 6]: 40.44 ± 3.63 s
- Latency to escape in acquisition trial [1, 7]: 44.80 ± 5.46 s
- Latency to escape in acquisition trial [1, 8]: 39.46 ± 9.62 s
- Latency to escape in acquisition trial [1, 9]: 41.74 ± 6.39 s
- Latency to escape in acquisition trial [1, 10]: 35.78 ± 4.95 s
- Latency to escape in acquisition trial [1, 11]: 30.86 ± 6.57 s
- Latency to escape in acquisition trial [1, 12]: 31.08 ± 3.33 s
- Time spent in target quadrant in probe trial [1, 13]: 20.78 ± 3.75 s
- Time spent in target quadrant in probe trial [1, 14]: 21.10 ± 2.16
